How the values were obtained:
[1] = tested on: peritoneal carcinomatosis; assay: Instillation of chemotherapy directly into the abdomen with low energy ultrasound in a patient with peritoneal carcinomatosis (Examples III, IV); type: in vivo; settings: with ultrasound at less than 100 kHz and less than 50 W; intraperitoneal instillation
Protocol: The chosen drug is dissolved in 100 ml of normal saline, injected into the catheter and followed by another 100 ml of normal saline for flushing. The patient's position is shifted every few minutes for an hour to disperse the drug. […] The chosen drug is bleomycin (15 units), 5-fluorouracil(1000 mg), thiotepa (45 mg) Adriamycin (30 mg) cisplatin, or a-IFN.
The procedure set forth in Example III is repeated with the chosen drug administered with microbubbles and the interval of repeated doses is further increased.

hepatic metastases = settings: human, in vivo

| Molecule | interval of repeated doses [1] | drug toxicity (hepatic metastases) |
| --- | --- | --- |
| COc1cccc2c1C(=O)c1c(O)c3c(c(O)c1C2=O)C[C@@](O)(C(=O)CO)C[C@@H]3O[C@H]1C[C@H](N)[C@H](O)[C@H](C)O1 [Adriamycin, Doxorubicin] | increases the interval of repeated doses | less drug toxicity |
| N.N.[Cl][Pt][Cl] [cisplatin] | increases the interval of repeated doses | – |
| O=c1[nH]c(=O)n([C@H]2C[C@H](O)[C@@H](CO)O2)cc1F [flexuridine] | – | less drug toxicity |
| O=c1[nH]cc(F)c(=O)[nH]1 [fluorouracil] | increases the interval of repeated doses | less drug toxicity |
| S=P(N1CC1)(N1CC1)N1CC1 [thiotepa] | increases the interval of repeated doses | – |
| bleomycin | increases the interval of repeated doses | – |

— patent US20010039952A1, “ULTRASOUND ENHANCED CHEMOTHERAPY” (Walter A. Hacker, Ph. D, priority 1998, published 2001)
